Patent US12624123B2, “Compositions and methods for reducing off-target toxicity of antibody drug conjugates” (The Research Foundation for The State University of New York, priority 2019, dated 2026)
“And” between values parts separate entries of the source, which are not always exact repeats. Equal values may be shown once. “Also recorded” adds a separate entry of the source. Read-outs that look alike come from different tables or passages of the source. Square brackets hold non-standard residues; d marks the D form. Peptide text beside a SMILES is read from it. * marks the point of attachment. Dolaproine = CO[C@@H]([C@@H]1CCCN1)[C@@H](C)C(=O)O; Dil = CC[C@H](C)[C@H](NC)[C@@H](CC(=O)O)OC; X1 = C[C@@H](N*)[C@@H](O)c1ccccc1; NMeV = CN[C@H](C(=O)O)C(C)C

How the values were obtained:
[1] = system: Lovo cells; test: MTT cytotoxicity of DM1 and DM4 on Lovo cells; format: cell-based; conditions: for IC50: DM4 alone, read-out: IC50 of DM4
Protocol: Log-phase Lovo or MOLM-14 cells were seeded in 96-well microtiter plates at a density of 5,000 cells/well, in 100 μL or 70 μL of culture medium, respectively. […] MOLM-14 cells were re-suspended with treatment solutions, where 100 μL of cell-treatment suspension was aliquoted into wells of a 96-well plate for 24 h. Treatment solutions consisted of DM-4 with or without purified anti-drug sdAb. For MOLM-14 cells, 10 μL of MTT solution (5 mg/mL in pH 7.4 1× PBS) was added directly to wells following treatment incubation. For adherent cells, treatment media was aspirated from wells and cells were washed three times with 100 μL of fresh media. Following the final wash, 100 μL of complete media and 25 μL of MTT solution were added to each well. Cells were incubated for 4 h in order to allow cells to reduce MTT to formazan dye. Once MTT was reduced, 100 μL of 10% SDS prepared in 0.01 M HCl was added to each well and incubated overnight to solubilize the formazan crystals. Formazan dye was measured at 570 nm and normalized by cell debris at 690 nm.

[2] = system: MOLM-14 cells; test: MTT cytotoxicity of DM4 on MOLM-14 cells (DF3A2); format: cell-based, human
Protocol: Log-phase Lovo or MOLM-14 cells were seeded in 96-well microtiter plates at a density of 5,000 cells/well, in 100 μL or 70 μL of culture medium, respectively. Lovo cells were allowed to adhere for 24 h before cell culture media was aspirated and replaced with 100 μL of PBS containing a range of treatment for 6h, then washed for 2 times before replacing with fresh media and incubated for additional 90 h. MOLM-14 cells were re-suspended with treatment solutions, where 100 μL of cell-treatment suspension was aliquoted into wells of a 96-well plate for 24 h. Treatment solutions consisted of DM-4 with or without purified anti-drug sdAb. For MOLM-14 cells, 10 μL of MTT solution (5 mg/mL in pH 7.4 1× PBS) was added directly to wells following treatment incubation. For adherent cells, treatment media was aspirated from wells and cells were washed three times with 100 μL of fresh media. Following the final wash, 100 μL of complete media and 25 μL of MTT solution were added to each well. Cells were incubated for 4 h in order to allow cells to reduce MTT to formazan dye. Once MTT was reduced, 100 μL of 10% SDS prepared in 0.01 M HCl was added to each well and incubated overnight to solubilize the formazan crystals. Formazan dye was measured at 570 nm and normalized by cell debris at 690 nm.

[3] = system: SKBR3 cells; test: Competitive cell assay with SKBR3 cells; format: cell-based
Protocol: SKBR3 cells were diluted to 4000 cells/100 μL and 100 μL was added to individual wells of a 96 well culture plate. Cells were incubated overnight to allow cells to adhere to the plate. […] Dxd and SN38 were diluted at the indicated concentrations and incubated for 90 minutes. Following incubation dilutions were added to individual wells in triplicate with fresh media dilutions added on day 1, 3 and 5 with cell viability evaluated on day 7 using an MTT assay.

[4] = molecular target: 8C2 Fab; test: Competitive SPR assay on exatecan chip; format: binding; conditions: 5 nM Fab, 1 hour incubation
Protocol: Exatecan was immobilized onto a CMS chip through amine coupling. […] Dilutions were incubated for one hour and subsequently injected over the exatecan immobilized chip. The observed maximum response data was fit to a 3 parameter inhibition equation in GraphPad Prism 7.
B/Bo is signal reached after a 3.5 minute injection with spiked in drugs divided by signal with Fab alone.

[5] = system: NCI-N87 cells; test: Cytotoxicity of MMAE and T-vc-MMAE in NCI-N87 cells with or without plasma; format: cell-based; conditions: 96 h, MMAE alone
Protocol: (§1) Log-phase MOLM-14, Ramos (RA 1), HT-29, LS174T, or NCI-N87 cells were seeded in 96-well microtiter plates at a density of 20,000 cells/well, 20,000 cells/well, 5,000 cells/well, 5,000 cells/well, and 10,000 cells/well, respectively, in 100 μL of culture medium. HT-29, LS174T, and NCI-N87 cells were allowed to adhere for 24 h before cell culture media was aspirated and replaced with 100 μL of fresh media containing a range of treatment for, 48 (LS174T), 96 (NCI-N87), or 120 (HT-29) h. MOLM-14 and Ramos cells were re-suspended with treatment solutions, where 100 μL of cell-treatment suspension was aliquoted into wells of a 96-well plate for 24 h. Treatment solutions consisted of calicheamicin, MMAE, topotecan, or SN38 with or without immunized animal plasma, purified anti-drug antibody, or antibody-drug conjugate (ADC) with or without plasma or anti-drug antibody. For MOLM-14 and Ramos cells, 25 μL of MTT solution (5 mg/mL in pH 7.4 1× PBS) was added directly to wells following treatment incubation. For adherent cells, treatment media was aspirated from wells and cells were washed three times with 100 μL of fresh media. Following the final wash, 100 μL of complete media and 25 μL of MTT solution were added to each well.

[6] = system: HT-29 cells; test: Competitive cell cytotoxicity (MTT) assay with HT-29 cells; format: cell-based; conditions: in absence of 8C2, read-out: IC50 of SN38
Protocol: as §1

[7] = system: 8C2 mAb; test: Competitive ELISA of 8C2 with topotecan and SN38 (BSA-topotecan coated); format: binding, murine; conditions: 8C2 held constant at 10 nM; read-out: IC50 in competitive ELISA vs intact 8C2
Protocol: A competitive ELISA was employed to determine the affinity of intact 8C2 mAb for SN38 and topotecan. A BSA-topotecan conjugate was synthesized and immobilized as previously described (Shah et al., Int J Pharm. 2014; 465(1-2):228-238. doi:10.1016/j.ijpharm.2014.01.038) 8C2 concentration was held constant at 10 nM with increasing concentrations of topotecan or SN38. 8C2 drug samples were incubated for 2 hours at room temperature with agitation. Following incubation, wells were washed three times with 250 μL of PBS-T and three times with dH2O. Wells were then incubated with a 1:500 dilution anti-mouse AP conjugate secondary in PBS-T with 3% BSA for 1 h. After washing, 250 μL of 4 mg/ml PNPP in diethanolamine buffer pH 9.8 with absorbance being read at 405 nm. The change in absorbance over time data was fit to a four-parameter function in GraphPad Prism 7.

[8] = SPR dissociation screening on DM1-Biotin chip; format: binding; conditions: 20 min dissociation phase
Protocol: Preliminary screening of DM1/4 binders were performed using a neutravidin SPR chip with DM1-Biotin on the left channel. Phagemid purified sdAbs were flowed over the SPR chip for 2 minutes at a flow rate of 25 ul/min. After binding, sdAb was dissociated for 20 minutes. Observed sensorgrams were fit to an individual dissociation rate constant for each construct. Equilibrium and kinetic binding of 3A2 was assessed using a CM5 SPR chip with TDM1 immobilized on the left channel. […] Rate constants for 3A2-TDM1 association and dissociation were obtained through fitting of the observed sensorgrams for the 1.25, 2.5, 5, 7.5 and 10 nM injections to a 1:1 Langmuir binding model.

[9] = system: NCI-N87 cells; test: NCI-N87 pulse cytotoxicity assay with C7 sdAb prep; format: cell-based; conditions: NCI-N87, 2 h pulse, 96 h with sdAb prep diluted 1:6.67
Protocol: FIG. 43. Purification of C7 sdAb from BL21(DE3) transformed E. coli cells and inhibitory cell cytotoxicity assays. C7 sdAb was expressed to the periplasm using a pelB leader sequence and purified using IMAC Ni-NTA resin. […] Although the product was crude, it was employed in cell cytotoxicity assays. NCI-N87 cells were seeded at a density of 10,000 cells/well and pulse with treatment solutions for 2 h. After treatment removal and washing, cells were incubated for 96 h with sdAb prep, diluted 1:6.67 with fresh culture medium.
From the single domain library, there were nine positive hits from three rounds of panning against BSA-MMAF/T-vc-MMAE. The screening of isolated colonies determined all were inhibited by incubation with free MMAE (FIG. 42), with three >10-fold inhibition. One colony, C7 was selected for infection of BL21(DE3) cells and protein expression.

[10] = 8C2 VHH binding to SN38 immobilized on magnetic beads
Protocol: The complementarily determining regions of the 8C2 heavy chain were placed into the stable human framework m0 that was reported by Dimitrov et al (PMID 18687338). DNA encoding for the 8C2 VHH was synthesized by GeneArt. DNA sequences were ligated into the Pet22b vector between the XhoI and NdeI restriction enzyme sites. DNA was transformed into Shuffle T7 express E. coli cells and expressed using standard recombinant expression. To evaluate binding activity, 8C2 VHH was incubated with SN38 immobilized onto magnetic beads and bound VHH detected with an anti-HIS tag HRP labeled reporter antibody. Intact 8C2 mAb was incubated alone and in-combination with 8C2 VHH and 8C2 mAb binding evaluated with an anti-mouse IgG HRP reporter antibody.

In the case of `COc1cc2cc(c1Cl)N(C)C(=O)C[C@H](OC(=O)[C@H](C)N(C)C(=O)CCC(C)(C)S)[C@]1(C)O[C@H]1[C@H](C)[C@@H]1C[C@@](O)(NC(=O)O1)[C@H](OC)/C=C/C=C(\C)C2` [DM4], the IC50 ([1]; 6 h exposure) is reported as 7.7 nM and 21.5 nM, the IC50 ([1]; 24 h exposure) is reported as 0.713 nM and 1.84 nM and the IC50 ([2]; DM4 alone) is reported as 18 nM and 18.4 nM.

For `CC[C@@]1(O)C(=O)OCc2c1cc1n(c2=O)Cc2c-1nc1cc(F)c(C)c3c1c2[C@@H](NC(=O)CO)CC3` [Dxd], the IC50 ([3]; viability day 7, read-out: IC50 of Dxd alone) was 0.7 nM and the “IC50 for inhibition of Fab binding to immobilized exatecan” value [4] was “low-nanomolar”.

`CC[C@H](C)[C@@H]([C@@H](CC(=O)N1CCC[C@H]1[C@H](OC)[C@@H](C)C(=O)N[C@H](C)[C@@H](O)c1ccccc1)OC)N(C)C(=O)[C@@H](NC(=O)[C@@H](NC)C(C)C)C(C)C` [MMAE, monomethyl auristatin E] (H-[NMeV]V[Dil][Dolaproine]-X1) showed an IC50 [5] of 0.496 ± 0.0327 nM.

For `CCc1c2c(nc3ccc(O)cc13)-c1cc3c(c(=O)n1C2)COC(=O)[C@]3(O)CC` [SN38], the IC50 ([3]; viability day 7, read-out: IC50 of free SN38) was 1.4 nM, the IC50 [6] was 8 nM and the “IC50 for inhibition of Fab binding to immobilized exatecan” value [4] was “low-nanomolar”. For the same molecule, the IC50 [7] was 10.3 nM.

B1: DF3A2 (protein)
VHH: QVQLQESGGGLVQPGGSLRLSCAASGGIFGISYMGWYRQAPGKQREPVALITSGGDTAYGDSVKGRFAISRDNAKNTVYLQMNSLKPDDTSAYYCAAGFYRSDSPNRYDYWGQGTQVTVSS
modifications: DF3A2
With B1 the “fold shift of DM4 IC50” value ([1]; 6 h exposure) was 11 fold, the dissociation kinetics [8] was “longest dissociation rates; also recorded: longer dissociation rates” and the “fold inhibition of DM4 cytotoxicity” value [2] was 2.1 fold.

B2: MC7 (protein)
VHH: QVQLVQSGGGLVQAGGSLRLSCVASGRTFSMYRMGWFRQAPGKEREFVASIRWSGGSTYYTDSVKDRFTISRDNAKNTVYLQMNSLKPEDTAVYYCAADPVWRLNSWYRGAVGYWGQGTQVTVSS
modifications: MC7
For B2, the “fold enhancement of T-vc-MMAE cytotoxicity” value [9] was 5.2 fold and the “fold inhibition of MMAE cytotoxicity” value [9] was 5.6 fold.

B3: 8C2 VHH: heavy chain CDRs of 8C2 placed into a stable human framework, SEQ ID NO:69 (protein)
VHH: QVQLVQSGGGLVQPGGSLRLSCAASGFNIKDTYIHWMSWVRQAPGKGLEWVSPDLANDNTKYDPKYYADSVKGRFTISRDNSKNTLYLQMNTLRAEDTAVYYCATWGAIITLGGWGQTMVTVSS
modifications: 8C2 VHH
With B3 the “increase in binding signal vs beads with blank buffer” value ([10]; anti-HIS detection) was 2 × and the “decrease of 8C2 mAb binding by addition of 8C2 VHH” value ([10]; anti-mouse IgG detection) was roughly 2 fold.
